Measured values reported in US9573908B2, “Broad spectrum pro-quorum-sensing molecules as inhibitors of virulence in vibrios” (priority 2012, dated 2017).

Tests used:
LuxO D47E = LuxO D47E (Vibrio cholerae serotype O1, UniProt Q9KT84, D47E); test: Coupled-enzyme ATPase assay, LuxO D47E; format: biochemical; details: for inhibition of ATP hydrolysis: FIG. 5A-C; for mode of inhibition: Lineweaver-Burk plots, parallel slopes
E. coli NtrC = target: T1, E. coli NtrC (Escherichia coli, UniProt P0AFB8, D54E); test: biochemical; details: read-out: inhibition of ATPase activity of purified E. coli NtrC
T1 construct: His6 (N); made in house; host or cells: E. coli BL21 (DE3), strain WN2181 (pET28B-NtrC D54E)
T1 sequence (P0AFB8 1-469 D54E): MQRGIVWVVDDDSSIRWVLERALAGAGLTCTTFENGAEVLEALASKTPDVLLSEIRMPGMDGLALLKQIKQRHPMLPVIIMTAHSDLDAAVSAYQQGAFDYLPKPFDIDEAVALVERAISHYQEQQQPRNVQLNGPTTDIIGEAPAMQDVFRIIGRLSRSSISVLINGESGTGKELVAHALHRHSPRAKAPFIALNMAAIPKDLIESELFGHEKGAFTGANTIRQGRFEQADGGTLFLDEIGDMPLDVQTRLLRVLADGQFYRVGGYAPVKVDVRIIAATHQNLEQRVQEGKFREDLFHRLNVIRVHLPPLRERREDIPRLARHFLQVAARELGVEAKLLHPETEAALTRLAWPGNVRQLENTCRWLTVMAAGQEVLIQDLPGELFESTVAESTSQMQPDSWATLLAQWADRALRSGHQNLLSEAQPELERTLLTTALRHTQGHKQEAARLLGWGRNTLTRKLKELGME

[1] = system: V. cholerae ΔcqsA ΔluxS double synthase mutant; format: cell-based; details: for induction of bioluminescence / QS activation: ΔcqsA ΔluxS double synthase mutant (wild type LuxO)
[2] = system: V. cholerae luxO^D47E strain; format: cell-based, Vibrio cholerae; details: for induction of bioluminescence / QS activation: luxO^D47E mutant
[3] = system: qrr4 expression in V. cholerae luxO^D47E strain; format: cell-based, Vibrio cholerae; details: 50 μM compound
vpsR = test: Transcription of the σ54-dependent gene vpsR; format: cell-based, Vibrio cholerae; details: in the presence of compound
[4] = system: V. parahaemolyticus luxO* mutant (LM4476); test: Colony opacity of V. parahaemolyticus; format: cell-based, Vibrio parahaemolyticus; details: 500 μM in medium
[5] = system: V. parahaemolyticus luxO* strain (LM4476); format: cell-based; details: 200 and 500 μM compound 12, Western blot
[6] = system: V. cholerae luxO^D47E strain; format: cell-based, Vibrio cholerae; details: 0-200 μM compound 12, Western blot
[7] = system: V. parahaemolyticus LM4476 (luxO*) on cultured HeLa cells; test: V. parahaemolyticus cytotoxicity assay on HeLa cells (LDH release); details: 500 μM, luxO* mutant, MOI 10
LuxO D47E/I211F = LuxO D47E/I211F (Vibrio cholerae serotype O1, UniProt Q9KT84, D47E/I197F); test: Coupled-enzyme ATPase assay, LuxO D47E/I211F; format: biochemical; details: 100 μM Compound 12, 2.5 mM ATP (FIG. 11)

| Compound | inhibition of ATP hydrolysis (LuxO D47E) | mode of inhibition (LuxO D47E) | inhibition at 250 µM (E. coli NtrC) [%] | EC50 (potency) of QS activation ([1]; dose-response curves, FIG. 2C, comparison in words) | induction of bioluminescence / QS activation [1] | induction of bioluminescence / QS activation [2] | decrease of GFP production from qrr4-gfp transcriptional fusion [3] [fold] | change in transcription of vpsR (vpsR) | colony morphology [4] | VopD production and secretion [5] | enhancement in potency ([2]; EC50 from FIG. 3, tert-butyl carbinol side chain versus the series) [fold] | HapR level [6] | TcpA level [6] | average cytotoxicity (HeLa cell lysis) ([7]; 2 to 3 hours post-infection) [%] | cytotoxicity (HeLa cell lysis) ([7]; 4-hour post-infection) [%] | inhibition of ATPase activity of LuxO D47E/I211F (LuxO D47E/I211F) |
| --- | --- | --- | --- | --- | --- | --- | --- | --- | --- | --- | --- | --- | --- | --- | --- | --- |
| CC(C)COC(=O)CSc1n[nH]c(=O)[nH]c1=O [Compound 11, Isobutyl 2-((3,5-dioxo-2,3,4,5-tetrahydro-1,2,4-triazin-6-yl)thio)acetate] | inhibit ATP hydrolysis in a dose-dependent manner | uncompetitive inhibitors | ~10 | highest potency | activate QS | activate QS | ~3 | did not change significantly | switch from translucent to opaque | – | – | – | – | – | – | – |
| CC(C)(C)COC(=O)CSc1n[nH]c(=O)[nH]c1=O [Compound 12, Neopentyl 2-((3,5-dioxo-2,3,4,5-tetrahydro-1,2,4-triazin-6-yl)thio)acetate] | inhibit ATP hydrolysis in a dose-dependent manner | uncompetitive inhibitors | ~10 | – | activate QS | activate QS | – | – | switch from translucent to opaque | decreased production and secretion | 3 | increased | decreased | ~30 | ~100 | not inhibited |
